# Experimental data from patent US20120149724A1, “MODULATING ENDOGENOUS BETA-ENDORPHIN LEVELS” (THE GENERAL HOSPITAL CORPORATION, priority 2009, published 2012).
# Entries after “also recorded” stand apart in the source; their conditions may differ.
# How the values were obtained:
# plasma β-endorphin = plasma β-endorphin by radioimmunoassay over a tail radiation or mock regimen; type: in vivo, mice
# From the text: FIG. 4C illustrates the plasma beta-endorphin fluctuations in the C57BL/6 mice as described in FIGS. 4A and 4B. To obtain the data shown in FIG. 4C, blood was drawn once per week over the 6 week regimen, and for the 2 weeks following. The blood was drawn in the morning prior to the radiation treatment for that day. FIG. 4C uses data obtained by C57BL/6 male mice, 10 mice per treatment group. Mock exposed mice remained stable throughout the regimen.
# For all experiments, mice used were in a C57BL/6 background. In all experiments wild type mice were used, and in select experiments mice containing homozygous deletion of the p53 gene (p53−/−) were used. All mice were 8 weeks old at the beginning of each experiment. […] Blood Draws and Preparation for Radioimmunoassay Mice were placed in a standard restrainer. A 30-gauge needle was inserted into the tail vein, and 200 uL of blood was collected in EDTA microvette tubes containing 5 TIU aprotinin. Tubes were maintained on ice at all times. Tubes were spun at 3500 rpm at 4° C. for 20 minutes. Plasma was isolated for β-endorphin measurement by commercially available radioimmunoassay (Phoenix Pharmaceuticals). […]
# [1] = tested on: tail-irradiated C57BL/6 mice; experiment: Straub Tail scoring in tail-irradiated mice; type: in vivo; details: 10 mg/kg ip after the 17th tail irradiation (5 Gy/day); rescored 20 minutes after injection
# Experimental: To obtain the data shown in FIG. 3C, after the 17th irradiation dose, the mice were measured for Straub Tail scores and the irradiated mice were divided into two subgroups. The first subgroup was injected with 10 mg/kg naloxone ip. The second subgroup was injected with saline ip. Straub Tail scores were then rescored 20 minutes after the injection. FIG. 3C uses data obtained by Wild type female mice. […] The saline injection has no effect on the Straub Tail phenotype.
# Mice undergoing tail radiation or mock treatment were assessed for Straub Tail according to a slightly modified method of Zarrindast, M. R., Ghadimi, M., Ramezani-Tehrani, B., and Sahebgharani, M. Effect of GABA Receptor Agonists or Antagonists on Morphine-induced Straub Tail in Mice. […] 2006; 116(8): 963-73, by which Straub tail is scored on a scale of 0-2 according to the angle of elevation of the tail from the horizontal plane (0=tail relaxed and no elevation; 1=tail is rigid and slightly elevation 1-10° from horizontal; 1.5=11-45 degree elevation with rigidity at the base of the tail; 2=46-90° elevation with rigidity at the base of the tail). For each measurement, each mouse is scored every 10 seconds for 1 minute, and the final score for each mouse at a given measurement point is the average of these 7 values. […] After the 17th irradiation, all mice were scored as described above immediately following tail radiation. […]
smiles,measurement,setting,value
C=CCN1CC[C@]23c4c5ccc(O)c4O[C@H]2C(=O)CC[C@@]3(O)[C@H]1C5 [naloxone],change in plasma beta-endorphin levels,"plasma β-endorphin; mock-exposed mice, 10 mg/kg",no increase in plasma beta-endorphin levels
same,change in plasma β-endorphin,"plasma β-endorphin; tail-irradiated mice, 10 mg/kg before behavioral testing, over the radiation regimen",most dramatic increase in plasma β-endorphin; also recorded: elevations in systemic beta-endorphin over and above the elevation caused by tail radiation alone
same,effect on Straub Tail score,[1],"abolished to near mock-treated levels; also recorded: reversed the Straub Tail, similar to mock-treated levels"
